The results in this text go back to patent publication US20240174596A1 (Northwestern University, priority 2021, published 2024).

Counter-ions that a name gives are not always drawn. Like-named read-outs stand apart in the source and are kept apart here.

Series [1] addresses T1, hOAT (Homo sapiens, UniProt P04181).
T1 construct: made in house; host or cells: E. coli BL21(DE3)
T1 sequence (P04181 26-439): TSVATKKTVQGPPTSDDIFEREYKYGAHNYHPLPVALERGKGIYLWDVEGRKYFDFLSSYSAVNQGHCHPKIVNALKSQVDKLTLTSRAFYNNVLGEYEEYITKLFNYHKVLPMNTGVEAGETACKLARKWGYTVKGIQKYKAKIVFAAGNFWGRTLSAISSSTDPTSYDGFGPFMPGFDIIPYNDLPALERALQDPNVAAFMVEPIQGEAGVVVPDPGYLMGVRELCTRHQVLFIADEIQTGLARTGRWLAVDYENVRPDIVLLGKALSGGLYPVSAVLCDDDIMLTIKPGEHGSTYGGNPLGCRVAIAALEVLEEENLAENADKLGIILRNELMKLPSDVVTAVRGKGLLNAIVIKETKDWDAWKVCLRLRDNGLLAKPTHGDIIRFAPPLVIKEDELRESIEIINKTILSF
Briefly: Time-dependent inactivation of hOAT. Type of series: biochemical. How it is done:
All reagents for enzyme purification and assays were purchased from Sigma-Aldrich (St. Louis, MO, USA). Human OAT (0.672 mg/mL) was purified from E. coli BL21 (DE3) cells following the procedure described above, and coenzyme human recombinant pyrroline 5-carboxylate reductase (PYCRI) were expressed, grown, and purified according to a literature procedure.^4 γ-Aminobutyric acid aminotransferase (GABA-AT, 0.4 mg/mL) was purified from pig brain following a procedure described previously^5, and coenzyme succinic semialdehyde dehydrogenase (SSDH) was purified from GABase (catalog No. G7509-25UN, Sigma-Aldrich), a commercially available mixture of SSDH and GABA-AT, using a known procedure.^6 Commercially available L-aspartate aminotransferase (Asp-AT) from the porcine heart (catalog No. G2751-2KU, Sigma-Aldrich) and the desired assay coenzyme malic dehydrogenase from porcine (catalog No. M2634-5KU, Sigma-Aldrich), and L-alanine aminotransferase (Ala-AT) from the porcine heart (catalog No. G8255-200UN, Sigma-Aldrich) and the desired assay coenzyme lactate dehydrogenase from porcine (catalog No. 427211-50KU, Sigma-Aldrich) were used directly without further purification. All the enzyme assays for the inactivation, partition ratio, and dialysis experiment were recorded on a Synergy H1 hybrid multimode microplate reader (Biotek, USA) with transparent 96-well plates.
Time-dependent inactivation against hOAT was performed using an optimized procedure published previously.^7 10 μL of hOAT (0.025 mg/mL) was preincubated with 10 μL of various concentrations of tested compounds in 100 mM potassium pyrophosphate buffer (pH 8.0, 5 mM α-ketoglutarate, and 5 mM β-mercaptoethanol) at 25° C. in a 96-well plate. At time intervals, 80 μL of assay solution containing PYCR^1 (0.5 μg), 1 mM NADH, and 25 mM L-ornithine in the abovementioned potassium pyrophosphate buffer were added to the incubation mixture and assayed for OAT activity at 37° C. for 30 min. The change in UV absorbance at 340 nm at 37° C. based on the conversion of NADH to NAD was monitored by a microplate reader. All assays were performed in duplicate, and the remaining OAT activity at each preincubation time at each inhibitor concentration was averaged. The natural logarithm of the percentage of the remaining OAT activity was plotted against the preincubation time at each inhibitor concentration to obtain the kobs (slope) value for each concentration. The kobs value is the rate constant describing the inactivation at each inhibitor concentration. kobs is replotted against the inhibitor concentration using nonlinear regression analysis using GraphPad Prism 8.0. K1 and kinact values were estimated from equation (1)
where kinact is the maximal rate of inactivation, K1 is the inhibitor concentration required for half-maximal inactivation, and [I] is the preincubation concentration of the tested compound.

In series [2] the target is T1, hOAT. Briefly: Fluoride ion release assay. It is filed as biochemical. On the procedure: The fluoride ion release assay was conducted using previous protocols.^10 The final concentration of enzyme in the sample was determined via BCA protein assay kit (Pierce, cat: 23225). A calibration curve of voltage (V, mV) was generated from varying concentrations of NaF (F, μM). For accurate detection of fluoride ion concentration, 10 μM of fluoride ion was added to each control and sample The number of fluoride ions released per active site was calculated by the ratio of the fluoride ion release concentration and enzyme concentration.

Series [3] can be described thus: Liver microsomal stability, human. It is filed as in vitro ADME. Background: Microsomes from liver hold many membrane-bound enzymes, among them those of drug oxidation.
Series [4] has as its target T2, CYP 1A2 (Homo sapiens, UniProt P05177).
T2 sequence (P05177 1-516): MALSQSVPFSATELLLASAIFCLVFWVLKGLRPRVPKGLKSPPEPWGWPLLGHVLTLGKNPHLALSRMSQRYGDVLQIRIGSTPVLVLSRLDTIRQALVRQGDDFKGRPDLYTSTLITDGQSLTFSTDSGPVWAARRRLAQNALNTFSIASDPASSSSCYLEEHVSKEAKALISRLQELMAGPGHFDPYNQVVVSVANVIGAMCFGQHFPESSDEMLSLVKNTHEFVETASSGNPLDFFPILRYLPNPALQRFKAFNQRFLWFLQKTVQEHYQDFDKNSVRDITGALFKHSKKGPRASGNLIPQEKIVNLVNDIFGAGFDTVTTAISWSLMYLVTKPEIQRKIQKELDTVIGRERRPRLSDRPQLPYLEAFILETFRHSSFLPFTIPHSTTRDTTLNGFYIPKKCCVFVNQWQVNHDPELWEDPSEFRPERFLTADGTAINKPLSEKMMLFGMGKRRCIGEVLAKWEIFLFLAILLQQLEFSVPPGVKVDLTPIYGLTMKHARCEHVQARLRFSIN
Briefly: CYP inhibition 1A2. It is filed as in vitro ADME.

Series [5] concerns the target CYP 2D6 (Homo sapiens, UniProt P10635). Briefly: CYP inhibition 2D6. It is filed as in vitro ADME.
For series [6], the target named is CYP 2C9 (Homo sapiens, UniProt P11712). Briefly: CYP inhibition 2C9. It is filed as in vitro ADME.
Chain of CYP 2C9 (P11712 whole entry): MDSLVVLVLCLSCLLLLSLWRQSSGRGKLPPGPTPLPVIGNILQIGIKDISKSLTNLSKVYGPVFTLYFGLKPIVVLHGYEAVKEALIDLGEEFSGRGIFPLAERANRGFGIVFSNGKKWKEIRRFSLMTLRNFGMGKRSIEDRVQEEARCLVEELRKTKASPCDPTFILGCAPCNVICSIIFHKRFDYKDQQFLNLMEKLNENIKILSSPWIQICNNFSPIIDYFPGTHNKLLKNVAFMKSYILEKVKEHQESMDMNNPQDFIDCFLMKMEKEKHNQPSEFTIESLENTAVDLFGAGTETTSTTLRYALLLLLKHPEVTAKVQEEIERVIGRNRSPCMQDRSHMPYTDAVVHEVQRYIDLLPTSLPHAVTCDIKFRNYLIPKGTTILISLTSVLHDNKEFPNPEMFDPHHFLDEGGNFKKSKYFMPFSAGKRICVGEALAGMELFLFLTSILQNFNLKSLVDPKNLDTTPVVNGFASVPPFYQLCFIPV
A short description of series [7]: Plasma PK profiles. Type of series: in vivo.
Series [8] in a line: Brain/plasma PK studies. Type of series: in vivo. The note with it: brain, read-out: B/P ratio.

Chain of CYP 2D6 (P10635 whole entry): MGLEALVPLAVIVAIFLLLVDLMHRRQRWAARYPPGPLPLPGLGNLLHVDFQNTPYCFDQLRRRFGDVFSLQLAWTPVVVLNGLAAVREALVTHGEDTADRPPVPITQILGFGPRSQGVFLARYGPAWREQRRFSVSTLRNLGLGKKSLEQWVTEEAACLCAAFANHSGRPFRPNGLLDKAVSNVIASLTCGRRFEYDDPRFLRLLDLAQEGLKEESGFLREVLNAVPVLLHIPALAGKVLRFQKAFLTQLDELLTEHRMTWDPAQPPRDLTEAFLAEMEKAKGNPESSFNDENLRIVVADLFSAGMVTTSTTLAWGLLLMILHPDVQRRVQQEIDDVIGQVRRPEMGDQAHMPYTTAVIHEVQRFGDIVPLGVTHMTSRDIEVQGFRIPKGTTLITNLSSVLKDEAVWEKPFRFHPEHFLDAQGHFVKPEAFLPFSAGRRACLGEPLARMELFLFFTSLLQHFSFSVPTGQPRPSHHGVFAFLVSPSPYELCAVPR

Take `N[C@H]1C=C(C(=O)O)CC1(F)F` [SS-1-148, (S)-3-Amino-4,4-difluorocyclopent-1-enecarboxylic acid hydrochloric acid salt]: in series [1], the “improvement of inactivation efficiency (kinact/K1) relative to parent compound 4” value was 444 fold and the “type of inhibition on hOAT” value was “irreversible inhibitor”. In addition, the kinact/KI in series [1] (inactivation efficiency) is 22.2 M⁻¹ s⁻¹. For the same compound, in series [1] (mean and standard error), the maximal inactivation rate constant (kinact) was 0.00133 s⁻¹. In addition, the “fluoride ion released per inactivation event” value in series [2] was found to be 33.9±0.8 equivalents. The compound further yielded a Fluoride ion release in series [2] (without α-KG, triplicate, mean with standard deviation) of 33.9 ± 0.8. Moreover, the “Liver microsomal stability (t1/2) Human” value in series [3] is “N/C”. The compound also yielded a half-inhibitory concentration (IC50) in series [4] above 100 µM. The compound also returned an IC50 in series [5] above 100 µM. The compound also had a concentration for half-maximal inhibition (IC50) in series [6] above 100 µM. In addition, in series [7] (IV (5 mg/kg)), the AUC(0-inf) was determined as 1160 ng·h/mL, the AUC(0-t) is 1150 ng·h/mL, the concentration peaked (Cmax) at 4680 ng/mL and the T1/2 is given as 0.43 H. For the same compound, the clearance in series [7] (IV (5 mg/kg)) was 72 mL/min/kg. In series [7] (IV (5 mg/kg), read-out: Vss), the Vd came to 1.01 L/kg. Also, in series [7] (PO (30 mg/kg)), the AUC(0-inf) stood at 8530 ng·h/mL, the exposure AUC(0-t) amounted to 8440 ng·h/mL, the concentration peaked (Cmax) at 8080 ng/mL and the time to peak (Tmax) worked out at 15 min. In series [7] (PO (30 mg/kg)), this compound came in with a bioavailability of around 100%. Moreover, the Kp at 0.25 h in series [8] (IV (5 mg/kg)) turned out to be 0.2. Also, in series [8] (PO (30 mg/kg)), the Kp at 0.25 h is 0.14. Moreover, in series [8] (PO (30 mg/kg), 2 h), the Kp at 2 h was 0.26.

The kinact/KI is the second-order rate constant of inactivation. Broadly, the kinact is the maximal first-order rate at which the target is inactivated. As a reminder, the IC50 is the concentration needed to halve the response being measured. A lower IC50 goes with greater potency in that assay. What is called AUC(0-inf) is the area under the concentration-time curve extrapolated to infinity. The low end stands for less exposure, the high end for more exposure. Broadly, the AUC(0-t) is the area under the concentration-time curve up to a stated or last time point. As usually defined, the Cmax is the peak of the concentration-time curve. As usually defined, the clearance is a measure of how efficiently the substance is removed, as volume per time. What is called Tmax is the time at which the peak concentration occurs. The bioavailability is the share of a dose that reaches the circulation, judged against a reference dose that is usually intravenous.
